How the values were obtained:
[1] = tested on: TGF-beta 1 stimulated SBE-bla HEK 293T; test: GeneBLAzer beta-lactamase (bla) reporter, TGF-beta 1 stimulated SBE-bla HEK 293T cell-based assay (ThermoFisher SelectScreen); details: Homo sapiens; SBE-bla HEK 293T cells; 30 minutes pre-incubation with inhibitor; TGF-beta 1 0.03 nM, 5 hours; inhibitor 10,000nM to 0.316nM; read-out: Cells (SBE_HEK293T) IC50
From the text: (§1) Table 2, below, describes the results of assays carried out on some compounds provided by the present disclosure. Exemplified compounds are confirmed to inhibit ALK5 activity in enzyme and cellular assays in the following assay systems conducted by ThermoFisher in Madison, WI according to their commercially available protocols.
ThermoFisher SelectScreen™ Cell-based Pathway Profiling Service GeneBLAzer Beta-lactamase (bla) Reporter Technology - TGF-beta 1 stimulated SBE-bla HEK 293T Cell-based Assay
SBE-bla HEK 293T cells are thawed and re-suspended in Assay Media (OPTI-MEM, 0.5% dialyzed FBS, 0.1 mM NEAA, 1 mM Sodium Pyruvate, 100 U/mL/100 µg/mL Pen/Strep) to a concentration of 625,000 cells/mL. 32 µL of cell suspension (20,000 cells) is added to each well of a 384-well Poly-D-Lysine assay plate. Cells in Assay Media are incubated for 16-24 hours in the plate at 37°C/5% CO2 in a humidified incubator. 4 µL of a 10X serial dilution of ALK5 inhibitors (10x = 100,000-3.16 nM) is added to appropriate wells of the plate and pre-incubated at 37°C/5% CO2 in a humidified incubator with cells for 30 minutes. Final concentration of inhibitor ranged from 10,000nM to 0.316nM. 4 µL of 10X TGF-beta 1 (final concentration of 0.03 nM) is added to wells containing the inhibitors. The plate is incubated for 5 hours at 37°C/5% CO2 in a humidified incubator. 8 µL of 1 µM Substrate Loading Solution is added to each well and the plate is incubated for 2 hours at room temperature before being read on a fluorescence plate reader. Percent inhibition is determined compared to DMSO only control (maximal TGF-beta 1 stimulation) and sigmoidal dose response curve fit yielded IC50 values as indicated in Table 2. TABLE 2: Biological activity assay results

TGFBR1 (ALK5) = molecular target: T1, TGFBR1 (ALK5) (Homo sapiens, UniProt P36897); test: LanthaScreen Eu Kinase Binding Assay TGFBR1 (ALK5) (ThermoFisher SelectScreen); details: ALK5 5 nM, Tracer #178 5 nM, Eu-anti-GST antibody 2 nM, 1 hour at room temperature, 1% DMSO; read-out: TβRI (ALK5) Binding IC50
T1 sequence (P36897 34-503): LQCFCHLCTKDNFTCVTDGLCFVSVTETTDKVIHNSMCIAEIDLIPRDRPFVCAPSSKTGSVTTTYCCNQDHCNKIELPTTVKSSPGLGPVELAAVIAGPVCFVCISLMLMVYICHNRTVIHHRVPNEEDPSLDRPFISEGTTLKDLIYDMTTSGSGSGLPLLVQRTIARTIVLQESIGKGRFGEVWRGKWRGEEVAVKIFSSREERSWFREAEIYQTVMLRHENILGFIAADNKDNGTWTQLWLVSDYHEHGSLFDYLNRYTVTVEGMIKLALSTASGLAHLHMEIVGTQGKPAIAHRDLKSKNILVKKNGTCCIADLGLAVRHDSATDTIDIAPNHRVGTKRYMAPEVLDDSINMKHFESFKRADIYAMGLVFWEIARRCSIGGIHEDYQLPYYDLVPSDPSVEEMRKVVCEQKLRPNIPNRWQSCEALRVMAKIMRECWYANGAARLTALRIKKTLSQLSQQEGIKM
From the text: as §1
ThermoFisher SelectScreen™ Biochemical Kinase Profiling Service, LanthaScreen™Eu Kinase Binding Assay TGFBR1 (ALK5)
Exemplified compounds are screened in 1% DMSO (final concentration) by 3-fold serial dilutions from 10,000 nM to 0.316 nM or at single concentrations of 10,000, 1000 and 100 nM according to the following protocol. To low volume, white 384-well plates (Greiner Cat#784207) add 160 nL 100x compound in 100% DMSO, 3.84 uL kinase buffer (50 mM HEPES, pH 7.5, 0.01% BRIJ-35, 10 mM MgCl2, 1 mM EGTA), 8 uL 2x kinase/antibody mixture in kinase buffer (final ALK5 concentration of 5 nM; final Eu-anti-GST antibody concentration of 2 nM), 4 uL 4x Tracer #178 in kinase buffer (final concentration of 5 nM). Gently shake the plates for 30 seconds and incubate at room temperature for 1 hour before reading fluorescence on a plate reader. Percent inhibition is determined compared to DMSO only control (maximal ALK5 tracer binding) and sigmoidal dose response curve fit yielded IC50 values as indicated in Table 2.

| Structure (SMILES) | IC50 [1] [nM] | IC50 (TGFBR1 (ALK5)) [nM] |
| --- | --- | --- |
| CC(C)n1ccc(-c2nc3n(c2-c2ccc4ncc(C(N)=O)n4c2)CCC3)n1 [Compound 7, 5-{3-(1-Isopropyl-1H-pyrazol-3-yl)-1,4-diazabicyclo[3.3.0]octa-2,4-dien-2-yl}-1,3a-diaza-3-indenecarboxamide] | 248 | 5.5 |
| NC(=O)c1cnc2ccc(-c3c(-c4ccn(C5CC5)n4)nc4n3CCC4)cn12 [Compound 8, 5-{3-(1-Cyclopropyl-1H-pyrazol-3-yl)-1,4-diazabicyclo[3.3.0]octa-2,4-dien-2-yl}-1,3a-diaza-3-indenecarboxamide] | 84 | 3.3 |
| Oc1ncnc2ccc(-c3c(-c4ccn(C5CC5)n4)nc4n3CCC4)cc12 [Compound 16, 6-{3-(1-Cyclopropyl-1H-pyrazol-3-yl)-1,4-diazabicyclo[3.3.0]octa-2,4-dien-2-yl}-3H-quinazolin-4-one] | 117 | 2.6 |
| Cn1cnc2ccc(-c3c(-c4ccn(C5CC5)n4)nc4n3CCC4)cc2c1=O [Compound 18, 6-{3-(1-Cyclopropyl-1H-pyrazol-3-yl)-1,4-diazabicyclo[3.3.0]octa-2,4-dien-2-yl}-3-methyl-3H-quinazolin-4-one] | 69 | 6.7 |
| Cn1cnc2ccc(-c3c(-c4ccn(C5CC5)n4)nc4n3CCN4)cc2c1=O [Compound 22, 6-{3-(1-Cyclopropyl-1H-pyrazol-3-yl)-1,4,6-triazabicyclo[3.3.0]octa-2,4-dien-2-yl}-3-methyl-3H-quinazolin-4-one] | 27.4 | 7.2 |
| CC(C)n1ccc(-c2nc3occn3c2-c2ccc3nc[nH]c(=O)c3c2)n1 [Compound 23, 6-{7-(1-Isopropyl-1H-pyrazol-3-yl)-4-oxa-1,6-diazabicyclo[3.3.0]octa-2,5,7-trien-8-yl}-3H-quinazolin-4-one] | 239 | 5.2 |
| O=c1[nH]cnc2ccc(-c3c(-c4ccn(C5CC5)n4)nc4occn34)cc12 [Compound 24, 6-{7-(1-Cyclopropyl-1H-pyrazol-3-yl)-4-oxa-1,6-diazabicyclo[3.3.0]octa-2,5,7-trien-8-yl}-3H-quinazolin-4-one] | 37 | 1.8 |
| CC(C)n1ccc(-c2nc3occn3c2-c2ccc3ncn(C)c(=O)c3c2)n1 [Compound 25, 6-{7-(1-Isopropyl-1H-pyrazol-3-yl)-4-oxa-1,6-diazabicyclo[3.3.0]octa-2,5,7-trien-8-yl}-3-methyl-3H-quinazolin-4-one] | 238 | 7.2 |
| Cn1cnc2ccc(-c3c(-c4ccn(C5CC5)n4)nc4occn34)cc2c1=O [Compound 26, 6-{7-(1-Cyclopropyl-1H-pyrazol-3-yl)-4-oxa-1,6-diazabicyclo[3.3.0]octa-2,5,7-trien-8-yl}-3-methyl-3H-quinazolin-4-one] | 33.8 | 3.1 |
| O=c1c2cc(-c3c(-c4ccn(C5CC5)n4)nc4n3CCC4)ccc2ncn1CCN1CCOCC1 [Compound 28, 6-{3-(1-Cyclopropyl-1H-pyrazol-3-yl)-1,4-diazabicyclo[3.3.0]octa-2,4-dien-2-yl}-3-(2-morpholinoethyl)-3H-quinazolin-4-one] | – | 107 |
| O=c1[nH]cnc2ccc(-c3c(-c4ccn(CC(F)F)n4)nc4n3CCC4)cc12 [Compound 49, 6-{3-[1-(2,2-Difluoroethyl)-1H-pyrazol-3-yl]-1,4-diazabicyclo[3.3.0]octa-2,4-dien-2-yl}-3H-quinazolin-4-one] | 2400 | 52 |
| Cn1cnc2ccc(-c3c(-c4ccn(CC(F)F)n4)nc4n3CCC4)cc2c1=O [Compound 50, 6-{3-[1-(2,2-Difluoroethyl)-1H-pyrazol-3-yl]-1,4-diazabicyclo[3.3.0]octa-2,4-dien-2-yl}-3-methyl-3H-quinazolin-4-one] | 253 | 90 |
| CC(C)(O)c1cnc2ccc(-c3c(-c4ccn(C5CC5)n4)nc4n3CCC4)cn12 [Compound 75, 2-(6-(2-(1-Cyclopropyl-1H-pyrazol-3-yl)-6,7-dihydro-5H-pyrrolo[1,2-a]imidazol-3-yl)imidazo[1,2-a]pyridin-3-yl)propan-2-ol] | 930 | 66 |
| CS(=O)(=O)c1ccc(-c2cc(-c3c(-c4ccn(C5CC5)n4)nc4n3CCC4)ccn2)cc1 [Compound 86, 2-(1-Cyclopropyl-1H-pyrazol-3-yl)-3-(2-(4-(methylsulfonyl)phenyl)pyridin-4-yl)-6,7-dihydro-5H-pyrrolo[1,2-a]imidazole] | 1400 | 129 |
| O=C(NC1CCOCC1)c1ccc(-c2cc(-c3c(-c4ccn(C5CC5)n4)nc4n3CCC4)ccn2)cc1 [Compound 88, 4-(4-(2-(1-Cyclopropyl-1H-pyrazol-3-yl)-6,7-dihydro-5H-pyrrolo[1,2-a]imidazol-3-yl)pyridin-2-yl)-N-(tetrahydro-2H-pyran-4-yl)benzamide] | 988 | 55 |
| Cn1cnc2ccc(-c3c(-c4ccn(C5CC5)n4)nc4sccn34)cc2c1=O [Compound 89, 6-{7-(1-Cyclopropyl-1H-pyrazol-3-yl)-4-thia-1,6-diazabicyclo[3.3.0]octa-2,5,7-trien-8-yl}-3-methyl-3H-quinazolin-4-one] | 27 | 2.5 |
| O=c1[nH]cnc2ccc(-c3c(-c4ccn(C5CC5)n4)nc4sccn34)cc12 [Compound 90, 6-{7-(1-Cyclopropyl-1H-pyrazol-3-yl)-4-thia-1,6-diazabicyclo[3.3.0]octa-2,5,7-trien-8-yl}-3H-quinazolin-4-one] | 35.6 | 2.5 |
| CC(C)n1ccc(-c2nc3sccn3c2-c2ccc3ncn(C)c(=O)c3c2)n1 [Compound 91, 6-(6-(1-Isopropyl-1H-pyrazol-3-yl)imidazo [2,1-b]thiazol-5-yl)-3-methylquinazolin-4(3H)-one] | 1100 | 22 |
| Oc1ncnc2ccc(-c3c(-c4ccn(C5CC5)n4)nc4n3CCC4)cc12 [Compound 92, 6-(2-(1-Cyclopropyl-1H-pyrazol-3-yl)-6,7-dihydro-5H-pyrrolo[1,2-a]imidazol-3-yl)quinazolin-4-ol] | 57 | 11 |
| O=C(c1ccc(-c2cc(-c3c(-c4ccn(C5CC5)n4)nc4n3CCC4)ccn2)cc1)N1CCOCC1 [Compound 93, (4-(4-(2-(1-Cyclopropyl-1H-pyrazol-3-yl)-6,7-dihydro-5H-pyrrolo[1,2-a]imidazol-3-yl)pyridin-2-yl)phenyl)(morpholino)methanone] | – | 244 |
| Cn1cnc2ccc(-c3c(-c4ccn(C5CCC5)n4)nc4n3CCC4)cc2c1=O [Compound 94, 6-(2-(1-Cyclobutyl-1H-pyrazol-3-yl)-6,7-dihydro-5H-pyrrolo[1,2-a]imidazol-3-yl)-3-methylquinazolin-4(3H)-one] | 4080 | 27 |
| NC(=O)c1ncnc2ccc(-c3c(-c4ccn(C5CC5)n4)nc4n3CCC4)cc12 [Compound 95, 6-(2-(1-Cyclopropyl-1H-pyrazol-3-yl)-6,7-dihydro-5H-pyrrolo[1,2-a]imidazol-3-yl)quinazoline-4-carboxamide] | 151 | 8.9 |

From patent EP3840748B1, “SUBSTITUTED IMIDAZOLES FOR THE INHIBITION OF TGF-BETA AND METHODS OF TREATMENT” (Clavius Pharmaceuticals, LLC, priority 2018, dated 2020)
